Test results from publication PMC11882969 (Nature Communications, 2025).
Values joined by “and” are separate entries in the source; they are usually repeats but may differ in a detail not shown here. Equal values may be shown once. Read-outs that look alike come from different tables or passages of the source.

Columns and labels:
[1] = molecular target: panel of 320 non-olfactory GPCRs (Homo sapiens, UniProt Q7Z601); format: cell-based
[2] = molecular target: panel of 320 non-olfactory GPCRs (Homo sapiens, UniProt P25100); format: cell-based
[3] = molecular target: panel of 320 non-olfactory GPCRs (Homo sapiens, UniProt Q8WXD0); format: cell-based
[4] = molecular target: panel of 320 non-olfactory GPCRs (Homo sapiens, UniProt Q8IZ08); format: cell-based
[5] = test system: mice; assay: Acetone test, cold allodynia after spared nerve injury; format: in vivo, mouse
Procedure: Mice were placed on a wire mesh and thirty min after an i.p. injection of the compounds we applied a drop (50 μL) of acetone on the ventral aspect of the hindpaw, 5 times every 30 sec. We recorded the number of nocifensive behaviors (paw lifts/licks/shakes/bites) over the 5 applications.

[6] = test system: mice; assay: Open field test; format: in vivo, mouse
Procedure: Thirty min after i.p. injection, mice were placed in the center of a round open-field (2 feet diameter) and their exploratory behavior recorded over the next 15 min. Distance traveled was used to represent open field behavior.

[7] = test system: mice; assay: Hot plate, 52 °C; format: in vivo, mouse; conditions: for Jump / Paw lick / Paw shake / Paw withdrawal: individual animals, FigS11b
[8] = molecular target: hCB2 (Homo sapiens, UniProt P34972); assay: Radioligand competition binding, HEK293 cells expressing human CB2R; set-up: expressed in transfected cells; host or cells: HEK293 cells stably expressing human CB2R (Laboratory of Ken Mackie); conditions: hCB2, log[drug], replicate columns
[9] = test system: mice; assay: Rotarod test; format: in vivo, mouse
[10] = test system: mice; assay: Catalepsy test, vertical wire mesh; format: in vivo, mouse; conditions: for Individual animal values (FigS11d): test not printed on the sheet
Procedure: Thirty min after an i.p. injection of the compounds, mice were placed on a vertical wire mesh and the latency to move all four paws was recorded.

[11] = test system: mice; assay: Formalin test; format: in vivo, mouse; conditions: for formalin test response per time bin (Figure5c), individual animals: 0.2 mg/kg
Procedure: Thirty min after an i.p. injection of the compounds, mice received an intraplantar injection of a 20μL solution containing 2% formalin (Acros Organics) and we recorded the time mice spent licking/biting/guarding (nocifensive behaviors) the injected hindpaw over the next 60 min.

[12] = test system: mice
Procedure: For all behavioral tests, the experimenter was always blind to treatment. Animals were first habituated for 30-60 min in Plexiglas cylinders and then tested 30 min after i.p. or i.t. injection of the compounds. The thermal (Hargreaves, hotplate and tail flick) and ambulatory (rotarod) tests were conducted as described[96]. Briefly, hindpaw thermal sensitivity was measured with a radiant heat source (Hargreaves) or on a hotplate at 52 °C. For the tail flick assay, sensitivity was measured by immersing the tail into a 50 °C water bath. For the ambulatory (rotarod) test, before testing with any compound, mice underwent three trainings on three consecutive days until they reach 300 sec. Each training has three sessions of five min each. Therapeutic window was calculated as the ratio of the minimum dose of side effect phenotype to the minimum dose of analgesic phenotype.

Chain of hCB2 (P34972 whole entry): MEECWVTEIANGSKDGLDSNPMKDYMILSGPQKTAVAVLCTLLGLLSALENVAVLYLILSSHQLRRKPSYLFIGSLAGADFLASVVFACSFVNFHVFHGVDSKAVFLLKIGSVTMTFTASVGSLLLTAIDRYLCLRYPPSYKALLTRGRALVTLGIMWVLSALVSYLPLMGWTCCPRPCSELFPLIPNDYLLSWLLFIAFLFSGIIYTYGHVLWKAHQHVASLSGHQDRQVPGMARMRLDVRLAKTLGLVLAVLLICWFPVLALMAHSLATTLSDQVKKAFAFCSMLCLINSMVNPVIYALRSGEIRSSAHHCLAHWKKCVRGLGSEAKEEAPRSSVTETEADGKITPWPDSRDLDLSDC
Chain of panel of 320 non-olfactory GPCRs (Homo sapiens, UniProt Q7Z601) (Q7Z601 whole entry): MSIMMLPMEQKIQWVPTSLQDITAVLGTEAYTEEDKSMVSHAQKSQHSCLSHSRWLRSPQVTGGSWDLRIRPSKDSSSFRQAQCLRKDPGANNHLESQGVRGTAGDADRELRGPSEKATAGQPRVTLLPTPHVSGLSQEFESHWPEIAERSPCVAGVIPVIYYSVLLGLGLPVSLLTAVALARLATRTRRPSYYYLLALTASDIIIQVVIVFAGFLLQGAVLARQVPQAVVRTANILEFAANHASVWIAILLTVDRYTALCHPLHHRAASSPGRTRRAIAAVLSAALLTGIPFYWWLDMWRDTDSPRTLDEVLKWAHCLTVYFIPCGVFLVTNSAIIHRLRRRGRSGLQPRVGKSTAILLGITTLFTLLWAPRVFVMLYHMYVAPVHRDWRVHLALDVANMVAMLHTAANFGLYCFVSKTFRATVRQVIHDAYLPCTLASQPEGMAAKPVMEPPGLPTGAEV
Chain of panel of 320 non-olfactory GPCRs (Homo sapiens, UniProt Q8WXD0) (Q8WXD0 whole entry): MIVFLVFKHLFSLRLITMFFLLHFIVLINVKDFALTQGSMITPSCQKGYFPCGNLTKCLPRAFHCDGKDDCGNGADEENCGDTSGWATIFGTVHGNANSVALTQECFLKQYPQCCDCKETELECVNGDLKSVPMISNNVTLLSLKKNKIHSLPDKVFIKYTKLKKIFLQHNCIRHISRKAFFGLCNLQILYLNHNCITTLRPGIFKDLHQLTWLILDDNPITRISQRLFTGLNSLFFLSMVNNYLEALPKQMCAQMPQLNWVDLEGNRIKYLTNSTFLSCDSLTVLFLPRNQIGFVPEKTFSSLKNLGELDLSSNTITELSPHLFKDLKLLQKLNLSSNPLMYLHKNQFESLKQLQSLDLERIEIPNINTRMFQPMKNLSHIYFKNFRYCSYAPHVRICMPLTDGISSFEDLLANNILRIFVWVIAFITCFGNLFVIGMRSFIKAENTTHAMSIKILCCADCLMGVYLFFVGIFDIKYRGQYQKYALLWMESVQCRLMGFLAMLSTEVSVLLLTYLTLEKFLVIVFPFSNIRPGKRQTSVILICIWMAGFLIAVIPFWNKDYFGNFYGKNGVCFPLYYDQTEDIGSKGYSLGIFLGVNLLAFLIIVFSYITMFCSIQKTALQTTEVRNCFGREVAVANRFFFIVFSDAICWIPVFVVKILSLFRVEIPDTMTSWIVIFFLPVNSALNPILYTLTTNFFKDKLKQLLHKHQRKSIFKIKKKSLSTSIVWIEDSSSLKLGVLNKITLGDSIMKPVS
Chain of panel of 320 non-olfactory GPCRs (Homo sapiens, UniProt P25100) (P25100 whole entry): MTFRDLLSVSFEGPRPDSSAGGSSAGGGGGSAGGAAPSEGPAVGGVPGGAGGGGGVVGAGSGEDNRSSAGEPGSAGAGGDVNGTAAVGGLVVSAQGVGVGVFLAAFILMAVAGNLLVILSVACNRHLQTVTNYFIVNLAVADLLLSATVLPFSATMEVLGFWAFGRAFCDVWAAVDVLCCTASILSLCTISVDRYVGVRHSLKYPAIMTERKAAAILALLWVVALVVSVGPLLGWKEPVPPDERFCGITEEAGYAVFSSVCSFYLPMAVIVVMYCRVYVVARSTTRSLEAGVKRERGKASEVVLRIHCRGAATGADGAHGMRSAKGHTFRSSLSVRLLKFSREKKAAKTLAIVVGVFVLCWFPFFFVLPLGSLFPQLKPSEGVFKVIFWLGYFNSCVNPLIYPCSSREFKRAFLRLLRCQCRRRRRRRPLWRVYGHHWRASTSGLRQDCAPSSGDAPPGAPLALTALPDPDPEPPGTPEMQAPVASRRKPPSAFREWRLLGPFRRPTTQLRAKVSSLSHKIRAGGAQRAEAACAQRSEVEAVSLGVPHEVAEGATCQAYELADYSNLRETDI
Chain of panel of 320 non-olfactory GPCRs (Homo sapiens, UniProt Q8IZ08) (Q8IZ08 whole entry): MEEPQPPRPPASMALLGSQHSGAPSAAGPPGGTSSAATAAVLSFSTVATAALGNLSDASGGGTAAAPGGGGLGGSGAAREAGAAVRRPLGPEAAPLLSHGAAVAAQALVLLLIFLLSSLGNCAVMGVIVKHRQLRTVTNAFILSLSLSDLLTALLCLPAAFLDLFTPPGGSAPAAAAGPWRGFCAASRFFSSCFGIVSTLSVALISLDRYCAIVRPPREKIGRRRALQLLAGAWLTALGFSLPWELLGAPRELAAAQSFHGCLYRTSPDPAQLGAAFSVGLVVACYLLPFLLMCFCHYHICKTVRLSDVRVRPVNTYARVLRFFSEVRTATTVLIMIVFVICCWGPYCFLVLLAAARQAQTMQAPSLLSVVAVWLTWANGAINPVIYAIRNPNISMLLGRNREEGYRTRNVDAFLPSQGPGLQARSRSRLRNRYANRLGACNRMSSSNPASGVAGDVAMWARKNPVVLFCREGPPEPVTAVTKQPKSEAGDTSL

SMILES: COC(=O)[C@@](C)(NC(=O)c1cc(C)n(-c2cccc(C(F)(F)F)c2)n1)c1cccs1 [‘1350]
- Fold of Basal RLU [1]: 1.2 and 0.9 and 1
- Fold of Basal RLU [2]: 0.6 and 0.7 and 0.9 and 0.5
- Fold of Basal RLU [3]: 1.3 and 0.9 and 1
- Fold of Basal RLU [4]: 1.2 and 0.9 and 1.6
- acetone test response after spared nerve injury (Figure5b), individual animals ([5]; Dose 0.05 mg/kg): 48 and 66 and 108 and 56 and 46
- acetone test response after spared nerve injury (Figure5b), individual animals ([5]; Dose 0.1 mg/kg): 38 and 48 and 28 and 64 and 18
- acetone test response after spared nerve injury (Figure5b), individual animals ([5]; Dose 0.2 mg/kg): 26 and 54 and 32
- lowest dose with significant anti-allodynia, acetone test ([5]; i.p.): 0.05 mg/kg
- effect on acetone-induced nocifensive behaviors ([5]; spared nerve injury, i.p.): strongly reduced spared nerve injury-induced cold allodynia
- open field locomotion (Figure6a), individual animals ([6]; Dose 0.2 mg/kg): 12688.4 and 110206 and 39857.9 and 128163 and 83978.8
- open field locomotion (Figure6a), individual animals ([6]; Dose 0.5 mg/kg): 61622.6 and 27571.5 and 19916.8 and 94738.4 and 50932.2
- dose showing locomotor deficits, open field ([6]; i.p.): 0.2 mg/kg
- Jump ([7]; 0.05 mg/kg): 0 (4×) and 2
- Paw lick ([7]; 0.05 mg/kg): 0 (3×) and 2 and 12
- Paw shake ([7]; 0.05 mg/kg): 20 and 22 and 48 and 24 and 12
- Paw withdrawal ([7]; 0.05 mg/kg): 28 and 42 and 47 and 50 and 14
- Jump ([7]; 0.1 mg/kg): 0
- Paw lick ([7]; 0.1 mg/kg): 2 and 0 (3×) and 8
- Paw shake ([7]; 0.1 mg/kg): 16 and 18 and 6 and 22 and 4
- Paw withdrawal ([7]; 0.1 mg/kg): 20 and 30 and 22 and 34 and 14
- Jump ([7]; 0.2 mg/kg): 8 and 0 and 34 and 14 (2×)
- Paw lick ([7]; 0.2 mg/kg): 0
- Paw shake ([7]; 0.2 mg/kg): 2 (2×) and 4 and 0 (2×)
- Paw withdrawal ([7]; 0.2 mg/kg): 16 and 22 and 18 (2×) and 12
- effect of CB2R knockout on analgesia, hot plate ([7]; CB2R KO mice): did not decrease the analgesic effects
- hot plate response normalised to baseline (Figure4b), individual animals ([7]; Dose 0.05 mg/kg): 62.7 and 108.4 and 141.6 and 81.1 and 84.7 and 79 and 84.5 and 85.4 and 86.2 and 81.8
- hot plate response normalised to baseline (Figure4b), individual animals ([7]; Dose 0.1 mg/kg): 100.2 and 152.6 and 103.1 and 113.3 and 127.2 and 80.8 and 109.9 and 151.2 and 138.2 and 159.1
- hot plate response normalised to baseline (Figure4b), individual animals ([7]; Dose 0.2 mg/kg): 191.789 and 117.988 and 110.937 and 200.407 and 123.942
- hot plate response normalised to baseline (Figure4b), individual animals ([7]; Dose 0.5 mg/kg): 244.124 and 212.316 and 122.062 and 249.608 and 217.8
- lowest dose with significantly increased hot plate latency ([7]; i.p., 30 min after injection): 0.1 mg/kg
- radioligand binding, competition curve point (normalized) ([8]; M = -6.64345): 1.586 and -0.1332
- radioligand binding, competition curve point (normalized) ([8]; M = -7.35666): 2.208 and 1.359
- radioligand binding, competition curve point (normalized) ([8]; M = -8.06987): 13.0908 and 10.365
- radioligand binding, competition curve point (normalized) ([8]; M = -8.78308): 37.5933 and 37.49
- radioligand binding, competition curve point (normalized) ([8]; M = -9.49629): 71.1443 and 45.0839
- radioligand binding, competition curve point (normalized) ([8]; M = -10.2095): 95.3669 and 77.3781
- radioligand binding, competition curve point (normalized) ([8]; M = -10.9227): 103.545 and 89.3952
- radioligand binding, competition curve point (normalized) ([8]; M = -11.6359): 105.504 and 103.118
- rotarod performance (Figure6b), individual animals ([9]; Dose 0.1 mg/kg): 275 and 300
- rotarod performance (Figure6b), individual animals ([9]; Dose 0.2 mg/kg): 300 and 226 and 231 and 240 and 274 and 298 and 237 and 211
- rotarod performance (Figure6b), individual animals ([9]; Dose 0.5 mg/kg): 123 and 300 and 128 and 153
- dose showing locomotor deficits or sedation, rotarod ([9]; i.p.): 0.5 mg/kg
- catalepsy (Figure6c), individual animals ([10]; 0.2 mg/kg dose): 7 and 4 and 15 and 2 (2×)
- catalepsy (Figure6c), individual animals ([10]; 0.5 mg/kg dose): 2 and 10 and 30 and 20 and 5 and 0.5 and 2.4 and 2.2 and 2.3 and 0.7 and 1 and 2.7 and 2.9 and 2.1 and 1.4
- catalepsy (Figure6c), individual animals ([10]; 1 mg/kg dose): 16 and 5 and 4 and 30 and 6
- catalepsy at a sedating dose ([10]; 1 mg/kg i.p.): non-significant, but nevertheless, increased latency to move the paws
- catalepsy in CB1R knockout ([10]; 1 mg/kg, CB1R KO mice): eliminated this minimal cataleptic effect
- catalepsy in CB2R knockout ([10]; 1 mg/kg, CB2R KO vs wildtype): statistically significant increase in catalepsy
- Individual animal values (FigS11d) ([10]; CB1R KO mice, 1 mg/kg): 3.1 and 2.8 and 2.7 and 1.8
- Individual animal values (FigS11d) ([10]; CB2R KO mice, 0.2 mg/kg): 2.2 and 2.7 and 4 and 4.2 and 2.8
- Individual animal values (FigS11d) ([10]; CB2R KO mice, 0.5 mg/kg): 3.3 and 4.3 and 29.3 and 28 and 5.6
- Individual animal values (FigS11d) ([10]; CB2R KO mice, 1 mg/kg): 40 and 2
- Individual animal values (FigS11d) ([10]; WT mice, 0.2 mg/kg): 7 and 4 and 15 and 2
- Individual animal values (FigS11d) ([10]; WT mice, 0.5 mg/kg): 2.4 and 2.2 and 2.3 and 0.7 and 1 and 2.7 and 2.1 and 1.4 and 2 and 10 and 30 and 20 and 5
- Individual animal values (FigS11d) ([10]; WT mice, 1 mg/kg): 16 and 5 and 4 and 30 and 6
- dose at which catalepsy starts ([10]; i.p.): 1 mg/kg
- catalepsy, latency to move all four paws ([10]; i.p., ‘1350 at 0.2 or 0.5 mg/kg, haloperidol 1.0 mg/kg): did not induce cataleptic behavior
- effect on formalin nocifensive behaviors ([11]; 0.2 mg/kg i.p., 60 min): profoundly decreased the duration of both phase 1 and phase 2 nocifensive behaviors
- formalin test response per time bin (Figure5c), individual animals ([11]; Time 0 min): 0
- formalin test response per time bin (Figure5c), individual animals ([11]; Time 5 min): 47.9 and 64.7 and 87.7 and 92.8 and 88.1
- formalin test response per time bin (Figure5c), individual animals ([11]; Time 10 min): 0 (4×) and 6.3
- formalin test response per time bin (Figure5c), individual animals ([11]; Time 15 min): 0 (3×) and 1.5 and 2.3
- formalin test response per time bin (Figure5c), individual animals ([11]; Time 20 min): 2.9 and 0 (3×) and 3.6
- formalin test response per time bin (Figure5c), individual animals ([11]; Time 25 min): 1.9 and 13.6 and 0 (2×) and 21.9
- formalin test response per time bin (Figure5c), individual animals ([11]; Time 30 min): 0 (2×) and 85 and 92.7 and 5.3
- formalin test response per time bin (Figure5c), individual animals ([11]; Time 35 min): 1.8 and 59 and 0 (2×) and 91.5
- formalin test response per time bin (Figure5c), individual animals ([11]; Time 40 min): 2.3 and 173.3 and 5.2 and 106.7 and 40.7
- formalin test response per time bin (Figure5c), individual animals ([11]; Time 45 min): 3.9 and 181.8 and 5.2 and 10 and 11.7
- formalin test response per time bin (Figure5c), individual animals ([11]; Time 50 min): 8.3 and 48.5 and 11.2 and 3.8 and 50.2
- formalin test response per time bin (Figure5c), individual animals ([11]; Time 55 min): 40.3 and 35.4 and 0 (3×)
- formalin test response per time bin (Figure5c), individual animals ([11]; Time 60 min): 2.4 and 30.9 and 0 (3×)
- therapeutic window, Acetone ([12]; Figure 6e, vs rotarod): 10
- therapeutic window, Hot Plate ([12]; Figure 6e, vs rotarod): 5
- therapeutic window, Tail Flick ([12]; Figure 6e, vs rotarod): 5
- therapeutic window, analgesia vs catalepsy ([12]; Figure 6f): at least a ten-fold window
- therapeutic window, Acetone ([12]; Figure 6d, vs open field): 4
- therapeutic window, Hot Plate ([12]; Figure 6d, vs open field): 2
- therapeutic window, Tail Flick ([12]; Figure 6d, vs open field): 2
- therapeutic window, analgesia vs hypolocomotion, sedation, catalepsy ([12]; mice): 2-10 fold and 2-20 fold
